Laboratory results as given in patent US20130041005A1, “PHARMACEUTICAL COMPOSITIONS COMPRISING NEUROPILIN INHIBITORS, AND THEIR USE FOR THE PREVENTION AND/OR TREATMENT OF ANGIOGENIC DISORDERS AND CANCERS” (TRAGEX PHARMA, priority 2011, published 2013).

How the values were obtained:
U2OS = assay: WST-1 proliferation assay, U2OS; assay type: cell-based; details: Homo sapiens; for IC50: Osteosarcoma U2OS, 72 h, read-out: Anti-proliferative activity IC50 (μM) ± SD; for inhibition at 0.1 µM / inhibition at 0.5 µM / inhibition at 1 µM: U2OS
Source text: (§1) Several cancer cell lines were used: breast cancer cells (MDA-MB-231 (ATTCC® Number HTB-26™), MDA-MB-436 (ATTCC® Number HTB-130™), MDA-MB-438, BT-474 (ATTCC® Number HTB-20™)); cervical cancer cells (HeLa (ATTCC® Number CCL-2™)); colon cancer cells (HCT-116 (ATTCC® Number CCL-247™) and HT-29 (ATTCC® Number HTB-38™)); osteosarcoma cells (U2OS (ATTCC® Number HTB-96™)); pancreas cancer cells (MIA PaCa-2 (ATTCC® Number CRL-1420™) and Panc-10.5 (ATTCC® Number CRL-2547™)); prostate cancer cells (PC-3 (ATTCC® Number CRL-1435™) and LNCaP (ATTCC® Number CRL-1740™)); brain cancer cells (U87 glioblastoma (ATTCC® Number HTB-14™) and SH-SYSY neuroblastoma (ATTCC® Number CRL-2266™)).
(§2) All the cancer cell lines were maintained in cultured in DMEM GlutaMAX™ (GIBCO Invitrogen, France, cat no 31966047) enhanced with 10% foetal bovine serum (GIBCO Invitrogen, France, cat no 10270-106) and 1% penicillin G/streptomycin (GIBCO Invitrogen, France, cat no 15140-122). Only Panc-10.5 cells were cultivated in RPMI 1640 medium (Gibco) supplemented with 2 mM L-glutamine, 1.5 g/L sodium bicarbonate, 4.5 g/L glucose, 10 mM HEPES, 1 mM sodium pyruvate, 10 Units/ml human insulin, […] (SVF): 15% (75 ml in 500 ml of medium).
Cells were grown as subconfluent monolayer and cultured in 75 cm^2 flasks at 37° C., 5% CO2 in a humidified atmosphere, and medium was changed every two days. Only cells from passages 2-6 were used for the experiments.
After observation of cells under the microscope, old media were removed and the adherent cells washed gently twice with PBS (Phosphate Buffer Saline, —Ca^2+, —Mg^2+, Lonza cat no: 17-512F/12). All cells were detached with 3 ml of trypsin/EDTA (chelator of calcium and magnesium ions) (Lonza), incubated for 5 min at 37° C., and examined using a microscope to ensure that the cells were detached and floating. Then, 3 ml TNS (Trypsin Neutralizing Solution, Lonza, France, cat no CC-5002) or of culture medium were added to inactivate the trypsin, and the cell suspension was transferred in a falcon and centrifuged for 7 min at 1400 rpm. The supernatant was removed and the cell pellet resuspended in […] of culture medium. 50 μl of this solution were transferred in 20 μl of isotonic solution and the cells were counted by count cellular (Beckman Coulter). At day 0, 200 μl of cellular suspension (3.10^3 cells/well for the HUVEC cells, breast cancer cells (MDA-MB-231 1.10^4 cells/well, MDA-MB-436 1.10^4 cells/well, MDA-MB-438 2.10^4 cells/well, BT-474 2.5.10^4 cells/well); cervical cancer cells (HeLa 5.000 cells/well); colon cancer cells (HCT-116 5.10^3 cells/well, HCT-29 1.1.10^4 cells/well); osteosarcoma cells (U2OS 8.10^3 cells/well); pancreas cancer cells (MIA PaCa-2 5.10^3 cells/well, Panc-10.5 1.5.10^4 cells/well); prostate cancer cells (PC-3 4.10^3 cells/well, LNCaP 2.10^4 cells/well); brain cancer cells (U87 5.10^3 cells/well, SH-SYSY 8.10^4 cells/well)) were then plated on 96 well plates and incubated at 37° C. in a humidified atmosphere of 5% CO2 for 24 h.
At day 1, the compounds 1 or 2 of the invention were added at increasing concentrations (0.1-10 μM) in the wells and plates were incubated at 37° C. in a humidified atmosphere of 5% CO2 for 72 h.
The cell proliferation WST-1 assay is a colorimetric assay for the quantification of cell proliferation and viability, based on the enzymatic cleavage of the tetrazolium salt WST-1 added to the culture medium, to a water soluble colored formazan dye, detected by absorbance at 450 nm, by mitochondrial succinate-tetrazolium reductase in viable cells. An augmentation in enzyme activity will then lead to an increase in the amount of formazan dye formed, which directly correlates to the number of metabolically active cells in the culture.
After an incubation period of 72 h, at day 4, were prepared the 19 ml medium with reagent WST-1 1 ml ([…]). The medium was removed from the 96 microplate and 200 μl of solution WST-1/medium were added for each well. […]

A549 = assay: WST-1 proliferation assay, A549; assay type: cell-based; details: Homo sapiens; Lung A549; read-out: Anti-proliferative activity IC50 (μM) ± SD
Method: as §2
Cells were grown as subconfluent monolayer and cultured in 75 cm^2 flasks at 37° C., 5% CO2 in a humidified atmosphere, and medium was changed every two days. […]
(§3) The cell proliferation WST-1 assay is a colorimetric assay for the quantification of cell proliferation and viability, based on the enzymatic cleavage of the tetrazolium salt WST-1 added to the culture medium, to a water soluble colored formazan dye, detected by absorbance at 450 nm, by mitochondrial succinate-tetrazolium reductase in viable cells. […]
After an incubation period of 72 h, at day 4, were prepared the 19 ml medium with reagent WST-1 1 ml ([…]). […] The cells were incubated at 37° C. in a humidified atmosphere of 5% CO2 for 1 h 30 and the absorbance at 450-655 nm was measured by Microplate Manager 5.2 (Bio-Rad).

cancer cell lines = assay: wst-1 cytotoxic test, all tested cancer cell lines; assay type: cell-based, Human; details: breast, colon, pancreas, cervical, prostate or brain cancer or osteosarcoma
Source text: as §1, with “CRL-2266™)). […]” for “CRL-2266™)).”
After observation of cells under the microscope, old media were removed and the adherent cells washed gently twice with PBS (Phosphate Buffer Saline, —Ca^2+, —Mg^2+, Lonza cat no: 17-512F/12). […] 50 μl of this solution were transferred in 20 μl of isotonic solution and the cells were counted by count cellular (Beckman Coulter). […]
as §3

Row | Compound | IC50 (U2OS) [µM] | inhibition at 0.1 µM (U2OS) [%] | inhibition at 0.5 µM (U2OS) [%] | inhibition at 1 µM (U2OS) [%] | IC50 (A549) [µM] | cytotoxicity for all the tested cancer cell lines (cancer cell lines)
1 | Cc1ccc(-c2nc3ccccc3[nH]2)cc1NC(=S)NC(=O)c1ccc2c(c1)OCCO2 [Compound 1, N-[5-(1H-benzimidazol-2-yl)-2-methylphenyl]-N′-(2,3-dihydro-1,4-benzodioxin-6-ylcarbonyl)thiourea] | 2.3 ± 0.04 | 15 | 29 | 36 | 0.4 ± 0.04 | cytotoxic for all the tested cancer cell lines
2 | O=C(NC(=S)Nc1cccc(-c2nc3ccccc3[nH]2)c1)c1ccc2c(c1)OCCO2 [Compound 2, N-[3-(1H-benzimidazol-2-yl)phenyl]-N′-(2,3-dihydro-1,4-benzodioxin-6-ylcarbonyl)thiourea] | 1.8 ± 0.05 | 31 | 41 | 44 | 0.1 ± 0.04 | cytotoxic for all the tested cancer cell lines
